Activity calls are given as the source filed them. The rule behind the calls is not given here.
These compounds were tested against Influenza A virus M2 proton channel (A/TW/4845/1999 H1N1) (assay: NMR binding screen, influenza A virus M2 proton channel, Kd (AID 1549)). Conditions: M2 protein.

Structure (SMILES)	Kd
CC(=O)O[C@H]1C[C@@H](OC(C)=O)C(C)(C)C2C[C@@H](OC(C)=O)[C@]3(C)C(CC[C@@]4(C)[C@H](c5ccoc5)C(=O)[C@H]5O[C@]543)[C@]21C (some centres not stated)	> 4 mM (inactive)
CCOc1ccc(C(=O)c2ccncc2)cc1	> 4 mM (inactive)
O=c1ccn(Cc2ccccc2)c(=O)n1Cc1ccccc1	> 4 mM (inactive)
CC(=O)Nc1ccc(N(C)C(C)=O)cc1	> 4 mM (inactive)
COc1ccc2c(c1OC)C(=O)O[C@H]2[C@H]1c2cc3c(cc2CCN1C)OCO3	> 4 mM (inactive)
Cc1ccc(C2NS(=O)(=O)N=C2N)cc1 (configuration not stated)	> 4 mM (inactive)
O=C(NCc1ccccc1)c1ccc[n+]([O-])c1	> 4 mM (inactive)
COc1ccc2c(c1OC)OC[C@@H](c1ccc(OC)c(OC)c1OC)C2	> 4 mM (inactive)
CC(=O)Oc1ccc(N2C(=O)C3C4C=CC(O4)C3C2=O)cc1 (configuration not stated)	> 4 mM (inactive)
O=C(O)/C=C(\CC(=O)O)C(=O)O	> 4 mM (inactive)
CC(=O)N(C)Cc1nc2ccccc2n1C	> 4 mM (inactive)
O=C(O)C1CSC(c2ccc(Cl)cc2)N1 (configuration not stated)	> 4 mM (inactive)
Nc1ncccc1OCc1ccccc1	> 4 mM (inactive)
CC(O)c1ccc(C(C)O)cc1 (configuration not stated)	> 4 mM (inactive)
NCCc1ccc(S(N)(=O)=O)cc1	> 4 mM (inactive)
C=C(C)CSc1nc2nc(C)cc(C)n2n1	> 4 mM (inactive)
CC(=O)Nc1ccc(N2CCOCC2)cc1	> 4 mM (inactive)
CSc1nnc2c(n1)OC(C)=Nc1ccccc1-2	> 4 mM (inactive)
N#Cc1cc(-c2ccccc2)oc1N	> 4 mM (inactive)
Cc1cc(=O)[nH]c(NCc2cccnc2)n1	> 4 mM (inactive)
Cc1cc(Oc2ccccc2)nc(N)n1	> 4 mM (inactive)
Cc1nnc(-n2cnc3ccccc32)c2ccccc12	> 4 mM (inactive)
Cn1ncc(C(=O)NC2CCCCC2)c1Cl	> 4 mM (inactive)
COc1cccc(S(=O)(=O)Nc2cccnc2)c1	> 4 mM (inactive)

Structure (SMILES)	Kd
NCc1ccccc1N1CCOCC1	> 4 mM (inactive)
Nc1ccc(-c2csnn2)cc1	> 4 mM (inactive)
CN1CN/C(=N\[N+](=O)[O-])N(c2ccccc2)C1	> 4 mM (inactive)
Cc1nc(-c2cccc(-c3noc(C)n3)c2)no1	> 4 mM (inactive)
NCc1ccc2c(c1)OCCCO2	> 4 mM (inactive)
CCOC(=O)c1csc(C)n1	> 4 mM (inactive)
CC1CCN(C(=O)c2cc3ccccc3o2)CC1	> 4 mM (inactive)
COc1ccc2c(c1O)-c1c(OC)c(OC)cc3c1[C@H](C2)N(C)CC3	> 4 mM (inactive)
Cc1cc(C)nc(/N=C(/N)Nc2cccc(F)c2)n1	> 4 mM (inactive)
CN(C)c1ccc(NC(=O)CC(C(=O)O)N(C)C)cc1 (configuration not stated)	> 4 mM (inactive)
COc1ccc2ccc(=O)oc2c1CC=C(C)C	> 4 mM (inactive)
CSc1n[nH]c(NCc2ccccc2)n1	> 4 mM (inactive)
O=C(O)C1(O)C[C@@H](O)C(O)[C@H](O)C1 (some centres not stated)	> 4 mM (inactive)
CN1CCC(NC(=O)c2c(F)cccc2Cl)CC1	> 4 mM (inactive)
NC(=O)c1ccsc1NC(=O)c1ccccc1[N+](=O)[O-]	> 4 mM (inactive)
O=[n+]1c2c(n([O-])c3ccccc31)CCCC2	> 4 mM (inactive)
Cc1c(C)[n+]([O-])c(-c2ccc([N+](=O)[O-])cc2)n1O	> 4 mM (inactive)
COc1cc(OC)c2c(=O)c(OC)c(-c3ccc(OC)c(OC)c3)oc2c1	> 4 mM (inactive)
Cc1c(/C=N/O)cnn1C	> 4 mM (inactive)
O=C(Nc1ccc2c(c1)OCO2)c1cccc(F)c1	> 4 mM (inactive)
CC1=C(C(=O)Nc2ccccc2)SCCO1	> 4 mM (inactive)
Cc1cc(C)n(C/C=C/Cn2nc(C)cc2C)n1	> 4 mM (inactive)
Nc1ccc(OCc2ccccc2)cc1	> 4 mM (inactive)
O=C(/C=C/c1ccc(O)c(O)c1)O[C@@H]1C[C@](O)(C(=O)O)C[C@@H](O)[C@H]1O	> 4 mM (inactive)

Structure (SMILES)	Kd
CCc1noc(C)c1C(=O)Nc1ncc(C)s1	> 4 mM (inactive)
CC(=O)Nc1ccc(Oc2nc(C)cc(C)n2)cc1	> 4 mM (inactive)
O=S1(=O)NC(=NCc2ccco2)c2ccccc21	> 4 mM (inactive)
COc1cc(S(=O)(=O)N(C)C)ccc1F	> 4 mM (inactive)
CNC(=O)C(=O)Nc1c(C)cccc1C	> 4 mM (inactive)
NNc1ncnc2sccc12	> 4 mM (inactive)
O=C(Nc1ccncc1)c1cncc(Br)c1	> 4 mM (inactive)
Cn1cnc2c(=S)[nH]c(=O)n(Cc3ccccc3)c21	> 4 mM (inactive)
c1ccc2c(c1)[nH]c1cnccc12	> 4 mM (inactive)
O=c1[nH]nnc2sc3c(c12)CCCC3	> 4 mM (inactive)
CC(=O)c1ccc2c(c1)OCCO2	> 4 mM (inactive)
CCN1CCC(=NO)CC1	> 4 mM (inactive)
Cc1c(C(=O)OC(C)C)[nH]c2c1C(=O)CCC2	> 4 mM (inactive)
COc1ccc(C)cc1S(=O)(=O)N1CCCCC1	> 4 mM (inactive)
Cc1cc(C)n(S(=O)(=O)c2ccc(C(C)(C)C)cc2)n1	> 4 mM (inactive)
Cc1c(C)c2c(c(C)c1O)CCC(C)(CCCC(C)CCCC(C)CCCC(C)C)O2 (configuration not stated)	> 4 mM (inactive)
O=C(O)Cn1cc(C(=O)c2cccs2)c2ccccc21	> 4 mM (inactive)
COc1cc(C)c2c(c1C=O)Oc1c(c(C)c(O)c3c1C(O)OC3=O)OC2=O (configuration not stated)	> 4 mM (inactive)
CCOC(=O)Nc1ccc2c(C)cc(=O)oc2c1	> 4 mM (inactive)
Cc1c(C(=O)Nc2ccccn2)oc2ccccc12	> 4 mM (inactive)
Clc1ccc(SCCn2cncn2)cc1	> 4 mM (inactive)
NC(=O)CSc1ccc(Br)cc1	> 4 mM (inactive)
COCC(=O)Nc1cc2c3c(c1)CCN3C(=O)CC2	> 4 mM (inactive)
O=c1c2ccccc2oc2ccccc12	> 4 mM (inactive)

Structure (SMILES)	Kd
COC(=O)[C@@H]1OC(=O)[C@H]2O[C@@]23[C@@]1(C)CCC1[C@@]2(C)CCC(=O)C(C)(C)C2C[C@@H](OC(C)=O)[C@]13C (some centres not stated)	> 4 mM (inactive)
CC[C@H](CCC(C)[C@H]1CCC2C3CCC4C[C@@H](O)CC[C@]4(C)C3CC[C@@]21C)C(C)C (some centres not stated)	> 4 mM (inactive)
Nc1cccc2c(=O)[nH][nH]c(=O)c12	> 4 mM (inactive)
Nc1ccc(F)cc1F	> 4 mM (inactive)
CC(=O)c1cc(C(N)=O)c(=S)[nH]c1C	> 4 mM (inactive)
NCCc1cnc[nH]1	> 4 mM (inactive)
CSc1n[nH]c(NCc2cccs2)n1	> 4 mM (inactive)
CC1(C)C(=O)[C@@H]2C[C@@]3(O)C4=CC(=O)O[C@@H](c5ccoc5)[C@]4(C)CCC3C(C)(C2=O)[C@H]1CC(=O)O (some centres not stated)	> 4 mM (inactive)
Cc1cc(C)nc(N(C#N)Cc2ccccc2)n1	> 4 mM (inactive)
O=C(c1ccccc1)c1ccccc1C(=O)N1CCOCC1	> 4 mM (inactive)
O=C(O)c1sccc1-n1cccc1	> 4 mM (inactive)
Cn1nnc2cc(C(=O)NC3=NCCS3)ccc21	> 4 mM (inactive)
O=C(O)/C=C/c1ccc(O)c(O)c1	> 4 mM (inactive)
Cc1nc(-c2cccc(N)c2)cs1	> 4 mM (inactive)
Cn1nc(C(=O)N2CCCC2)c2ccccc2c1=O	> 4 mM (inactive)
Nc1ccc(-n2cccc2)cc1	> 4 mM (inactive)
CC1CN(C2=NCCN2)CC(C)O1 (configuration not stated)	> 4 mM (inactive)
CCNC(CC(=O)Nc1ccc(F)cc1)C(=O)O (configuration not stated)	> 4 mM (inactive)
O=C(O)C1Cc2c([nH]c3ccccc23)CN1 (configuration not stated)	> 4 mM (inactive)
NC(=O)CNC(=O)c1ccccc1	> 4 mM (inactive)
Cc1nnc(NCc2cccnc2)[nH]c1=O	> 4 mM (inactive)
CCCn1cnc2sc(C(N)=O)c(C)c2c1=O	> 4 mM (inactive)
COC(=O)[C@@H]1OC(=O)C2OC23[C@@]1(C)CCC1[C@]2(C)C(C[C@H](O)[C@]13C)C(C)(C)[C@H](OC(C)=O)C[C@@H]2OC(C)=O (some centres not stated)	> 4 mM (inactive)
O=C(NN1CCOCC1)c1cccs1	> 4 mM (inactive)

Structure (SMILES)	Kd
CN1CCN(c2cc(=O)n(C)c(=O)[nH]2)CC1	> 4 mM (inactive)
CCOC(=O)CNC(=O)CSc1nnc(C)c(=O)[nH]1	> 4 mM (inactive)
O=C1NNC(=O)C2C3c4ccccc4C(c4ccccc43)C12 (configuration not stated)	> 4 mM (inactive)
Cc1nnc(SCC(=O)N2CCc3ccccc32)s1	> 4 mM (inactive)
O=C1NC(=S)NC(=O)C1=Cc1ccccc1O	> 4 mM (inactive)
COc1c(-c2ccccc2)oc2c(OC)cccc2c1=O	> 4 mM (inactive)
CC(=O)CNc1cc(CNC(C)=O)c(C)cc1C	> 4 mM (inactive)
CC(=O)OC[C@H]1O[C@@H](Oc2cc(OC(C)=O)c3c(=O)cc(-c4ccc(OC(C)=O)cc4)oc3c2)[C@H](OC(C)=O)[C@@H](OC(C)=O)[C@@H]1OC(C)=O	> 4 mM (inactive)
C/C(O)=c1/sc2cc(C)nc(=N)n2c1=O	> 4 mM (inactive)
Cn1cc(Cl)c(C(=O)Nc2ccncc2)n1	> 4 mM (inactive)
OC[C@@H](O)[C@@H](O[C@@H]1O[C@H](CO)[C@@H](O)[C@H](O)[C@H]1O)[C@H](O)[C@@H](O)CO	> 4 mM (inactive)
Cc1cc(C)n(S(=O)(=O)c2ccc(C)c(C)c2C)n1	> 4 mM (inactive)
C=C1CCC2C(CC2(C)C)C(=O)CCC1O (configuration not stated)	> 4 mM (inactive)
Cc1occc1C(=O)N1CCC2(CC1)OCCO2	> 4 mM (inactive)
O=C1c2ccccc2C(=O)c2c(O)c(O)cc(O)c21	> 4 mM (inactive)
Cc1n[nH]c(=S)[nH]c1=O	> 4 mM (inactive)
Cn1c(NCc2ccccc2O)nc2ccccc21	> 4 mM (inactive)
CC(=O)c1ccc(Cc2cnc(N)s2)cc1	> 4 mM (inactive)
Cc1cc(C)n2nc(SCC(=O)c3ccccc3)nc2n1	> 4 mM (inactive)
Cc1ccc(C(=O)Nc2ccncc2)o1	> 4 mM (inactive)
Cc1cccc(C)c1NC(=O)/C=C/C(=O)O	> 4 mM (inactive)
